From PubChem BioAssay (NCI)
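A five-concentration, 48-hour dose response in 96-well plates underlies each endpoint, interpolated linearly between surrounding concentrations. TGI marks complete inhibition of growth.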 Residues, ends and D or L forms follow the SMILES beside them. *: point of attachment. Boc = CC(C)(C)OC(=O)*; OBn = c1ccc(CO*)cc1

Legend:
Test in all cases: NCI-60 cell line screen, 48 h
SNB-19 CNS = tested on: SNB-19 CNS
OVCAR-4 ovarian = tested on: OVCAR-4 ovarian
RPMI-8226 leukemia = tested on: RPMI-8226 leukemia
MDA-MB-435 = tested on: MDA-MB-435
SK-MEL-5 melanoma = tested on: SK-MEL-5 melanoma
NCI/ADR-RES ovarian = tested on: NCI/ADR-RES ovarian
OVCAR-5 ovarian = tested on: OVCAR-5 ovarian
HS 578T breast = tested on: HS 578T breast
SNB-75 CNS = tested on: SNB-75 CNS
ACHN renal = tested on: ACHN renal
HT29 colon = tested on: HT29 colon
SF-268 CNS = tested on: SF-268 CNS
KM12 colon = tested on: KM12 colon
SN12C renal = tested on: SN12C renal
SF-295 CNS = tested on: SF-295 CNS
UACC-62 melanoma = tested on: UACC-62 melanoma
HOP-62 NSCLC = tested on: HOP-62 NSCLC
U251 CNS = tested on: U251 CNS
K-562 leukemia = tested on: K-562 leukemia
DU-145 prostate = tested on: DU-145 prostate
BT-549 breast = tested on: BT-549 breast
EKVX NSCLC = tested on: EKVX NSCLC
786-0 renal = tested on: 786-0 renal
TK-10 renal = tested on: TK-10 renal
MDA-MB-231 breast = tested on: MDA-MB-231 breast
HCT-15 colon = tested on: HCT-15 colon
SR leukemia = tested on: SR leukemia
MDA-N = tested on: MDA-N
OVCAR-8 ovarian = tested on: OVCAR-8 ovarian
CCRF-CEM leukemia = tested on: CCRF-CEM leukemia
T-47D breast = tested on: T-47D breast
COLO 205 colon = tested on: COLO 205 colon
A549 NSCLC = tested on: A549 NSCLC
HL-60(TB) leukemia = tested on: HL-60(TB) leukemia
SK-MEL-28 melanoma = tested on: SK-MEL-28 melanoma
MOLT-4 leukemia = tested on: MOLT-4 leukemia
HOP-92 NSCLC = tested on: HOP-92 NSCLC
HCT-116 colon = tested on: HCT-116 colon
HCC-2998 colon = tested on: HCC-2998 colon
NCI-H23 lung = tested on: NCI-H23 lung
OVCAR-3 ovarian = tested on: OVCAR-3 ovarian
NCI-H226 lung = tested on: NCI-H226 lung
SF-539 CNS = tested on: SF-539 CNS
UACC-257 melanoma = tested on: UACC-257 melanoma
UO-31 renal = tested on: UO-31 renal
MALME-3M melanoma = tested on: MALME-3M melanoma
M14 melanoma = tested on: M14 melanoma
SW-620 colon = tested on: SW-620 colon
A498 renal = tested on: A498 renal
SK-MEL-2 melanoma = tested on: SK-MEL-2 melanoma
LOX IMVI melanoma = tested on: LOX IMVI melanoma
SK-OV-3 ovarian = tested on: SK-OV-3 ovarian
MCF7 breast = tested on: MCF7 breast
NCI-H522 lung = tested on: NCI-H522 lung
IGROV1 ovarian = tested on: IGROV1 ovarian
CAKI-1 renal = tested on: CAKI-1 renal
PC-3 prostate = tested on: PC-3 prostate
RXF 393 renal = tested on: RXF 393 renal
NCI-H460 lung = tested on: NCI-H460 lung

In the case of `Cc1cc(Nc2ccc(S(=O)(=O)O)cc2)c2ccccc2n1`, the TGI (SNB-19 CNS) is reported as greater than 100 µM, the TGI (OVCAR-4 ovarian) is reported as greater than 100 µM and the TGI (RPMI-8226 leukemia) is reported as greater than 100 µM. It also gave a TGI (MDA-MB-435) greater than 100 µM, a TGI (SK-MEL-5 melanoma) greater than 100 µM and a TGI (NCI/ADR-RES ovarian) greater than 100 µM. The TGI (OVCAR-5 ovarian) was greater than 100 µM, the TGI (HS 578T breast) was greater than 100 µM and the TGI (SNB-75 CNS) was greater than 100 µM. The TGI (ACHN renal) was greater than 100 µM, the TGI (HT29 colon) was greater than 100 µM and the TGI (SF-268 CNS) was greater than 100 µM. The TGI (KM12 colon) was greater than 100 µM, the TGI (SN12C renal) was greater than 100 µM and the TGI (SF-295 CNS) was greater than 100 µM. For the same compound, the TGI (UACC-62 melanoma) was greater than 100 µM, the TGI (HOP-62 NSCLC) was greater than 100 µM and the TGI (U251 CNS) was greater than 100 µM. For the same compound, the TGI (K-562 leukemia) was greater than 100 µM, the TGI (DU-145 prostate) was greater than 100 µM and the TGI (BT-549 breast) was greater than 100 µM. It also gave a TGI (EKVX NSCLC) greater than 100 µM, a TGI (786-0 renal) greater than 100 µM and a TGI (TK-10 renal) greater than 100 µM. It also gave a TGI (MDA-MB-231 breast) greater than 100 µM, a TGI (HCT-15 colon) greater than 100 µM and a TGI (SR leukemia) greater than 100 µM. It also gave a TGI (MDA-N) greater than 100 µM, a TGI (OVCAR-8 ovarian) greater than 100 µM and a TGI (CCRF-CEM leukemia) greater than 100 µM. It also gave a TGI (T-47D breast) greater than 100 µM, a TGI (COLO 205 colon) greater than 100 µM and a TGI (A549 NSCLC) greater than 100 µM. For the same compound, the TGI (HL-60(TB) leukemia) was greater than 100 µM, the TGI (SK-MEL-28 melanoma) was greater than 100 µM and the TGI (MOLT-4 leukemia) was greater than 100 µM. The TGI (HOP-92 NSCLC) was greater than 100 µM, the TGI (HCT-116 colon) was greater than 100 µM and the TGI (HCC-2998 colon) was greater than 100 µM. For the same compound, the TGI (NCI-H23 lung) was greater than 100 µM, the TGI (OVCAR-3 ovarian) was greater than 100 µM and the TGI (NCI-H226 lung) was greater than 100 µM. It also gave a TGI (SF-539 CNS) greater than 100 µM, a TGI (UACC-257 melanoma) greater than 100 µM and a TGI (UO-31 renal) greater than 100 µM. It also gave a TGI (MALME-3M melanoma) greater than 100 µM, a TGI (M14 melanoma) greater than 100 µM and a TGI (SW-620 colon) greater than 100 µM. The TGI (A498 renal) was greater than 100 µM, the TGI (SK-MEL-2 melanoma) was greater than 100 µM and the TGI (LOX IMVI melanoma) was greater than 100 µM. For the same compound, the TGI (SK-OV-3 ovarian) was greater than 100 µM, the TGI (MCF7 breast) was greater than 100 µM and the TGI (NCI-H522 lung) was greater than 100 µM. The TGI (IGROV1 ovarian) was greater than 100 µM, the TGI (CAKI-1 renal) was greater than 100 µM and the TGI (PC-3 prostate) was greater than 100 µM.

`CC(C)CC(NC(=O)OC(C)(C)C)C(=O)NC(CC(=O)OCc1ccccc1)C(N)=O` (stereo not drawn) (Boc-Leu-Asp(OBn)-NH2; configuration not given here) was tested, and the TGI (SNB-19 CNS) was greater than 100 µM, the TGI (OVCAR-4 ovarian) was greater than 100 µM and the TGI (MDA-MB-435) was greater than 100 µM. It also gave a TGI (SK-MEL-5 melanoma) greater than 100 µM, a TGI (NCI/ADR-RES ovarian) greater than 100 µM and a TGI (OVCAR-5 ovarian) greater than 100 µM. The TGI (HS 578T breast) was greater than 100 µM, the TGI (SNB-75 CNS) was greater than 100 µM and the TGI (ACHN renal) was greater than 100 µM. The TGI (HT29 colon) was greater than 100 µM, the TGI (SF-268 CNS) was greater than 100 µM and the TGI (KM12 colon) was greater than 100 µM. The TGI (SN12C renal) was greater than 100 µM, the TGI (SF-295 CNS) was greater than 100 µM and the TGI (UACC-62 melanoma) was greater than 100 µM. It also gave a TGI (U251 CNS) greater than 100 µM, a TGI (K-562 leukemia) greater than 100 µM and a TGI (DU-145 prostate) greater than 100 µM. For the same compound, the TGI (BT-549 breast) was greater than 100 µM, the TGI (EKVX NSCLC) was greater than 100 µM and the TGI (786-0 renal) was greater than 100 µM. The TGI (TK-10 renal) was greater than 100 µM, the TGI (MDA-MB-231 breast) was greater than 100 µM and the TGI (HCT-15 colon) was greater than 100 µM. The TGI (SR leukemia) was greater than 100 µM, the TGI (MDA-N) was greater than 100 µM and the TGI (OVCAR-8 ovarian) was greater than 100 µM. For the same compound, the TGI (T-47D breast) was greater than 100 µM, the TGI (COLO 205 colon) was greater than 100 µM and the TGI (A549 NSCLC) was greater than 100 µM. It also gave a TGI (SK-MEL-28 melanoma) greater than 100 µM, a TGI (HOP-92 NSCLC) greater than 100 µM and a TGI (HCT-116 colon) greater than 100 µM. For the same compound, the TGI (NCI-H23 lung) was greater than 100 µM, the TGI (OVCAR-3 ovarian) was greater than 100 µM and the TGI (NCI-H226 lung) was greater than 100 µM. It also gave a TGI (SF-539 CNS) greater than 100 µM, a TGI (UACC-257 melanoma) greater than 100 µM and a TGI (UO-31 renal) greater than 100 µM. The TGI (MALME-3M melanoma) was greater than 100 µM, the TGI (M14 melanoma) was greater than 100 µM and the TGI (SW-620 colon) was greater than 100 µM. It also gave a TGI (A498 renal) greater than 100 µM, a TGI (SK-MEL-2 melanoma) greater than 100 µM and a TGI (RXF 393 renal) greater than 100 µM. It also gave a TGI (LOX IMVI melanoma) greater than 100 µM, a TGI (SK-OV-3 ovarian) greater than 100 µM and a TGI (MCF7 breast) greater than 100 µM. The TGI (NCI-H522 lung) was greater than 100 µM, the TGI (IGROV1 ovarian) was greater than 100 µM and the TGI (CAKI-1 renal) was greater than 100 µM. The TGI (PC-3 prostate) was greater than 100 µM.

In the case of `O=c1c(-c2ccccc2)c2n(c3ccccc13)CCN2`, the TGI (SNB-19 CNS) is reported as 86.9 µM, the TGI (OVCAR-4 ovarian) is reported as greater than 100 µM and the TGI (RPMI-8226 leukemia) is reported as greater than 100 µM. For the same compound, the TGI (MDA-MB-435) was greater than 100 µM, the TGI (SK-MEL-5 melanoma) was greater than 100 µM and the TGI (NCI/ADR-RES ovarian) was greater than 100 µM. It also gave a TGI (OVCAR-5 ovarian) greater than 100 µM, a TGI (HS 578T breast) greater than 100 µM and a TGI (SNB-75 CNS) greater than 100 µM. The TGI (ACHN renal) was greater than 100 µM, the TGI (HT29 colon) was greater than 100 µM and the TGI (SF-268 CNS) was greater than 100 µM. For the same compound, the TGI (KM12 colon) was greater than 100 µM, the TGI (SN12C renal) was greater than 100 µM and the TGI (SF-295 CNS) was greater than 100 µM. For the same compound, the TGI (UACC-62 melanoma) was greater than 100 µM, the TGI (HOP-62 NSCLC) was greater than 100 µM and the TGI (U251 CNS) was greater than 100 µM. For the same compound, the TGI (K-562 leukemia) was greater than 100 µM, the TGI (DU-145 prostate) was greater than 100 µM and the TGI (BT-549 breast) was greater than 100 µM. For the same compound, the TGI (EKVX NSCLC) was greater than 100 µM, the TGI (786-0 renal) was greater than 100 µM and the TGI (TK-10 renal) was greater than 100 µM. The TGI (MDA-MB-231 breast) was greater than 100 µM, the TGI (HCT-15 colon) was greater than 100 µM and the TGI (SR leukemia) was greater than 100 µM. It also gave a TGI (MDA-N) greater than 100 µM, a TGI (OVCAR-8 ovarian) greater than 100 µM and a TGI (CCRF-CEM leukemia) greater than 100 µM. It also gave a TGI (T-47D breast) greater than 100 µM, a TGI (COLO 205 colon) greater than 100 µM and a TGI (A549 NSCLC) greater than 100 µM. The TGI (HL-60(TB) leukemia) was greater than 100 µM, the TGI (SK-MEL-28 melanoma) was greater than 100 µM and the TGI (MOLT-4 leukemia) was greater than 100 µM. The TGI (HOP-92 NSCLC) was greater than 100 µM, the TGI (HCT-116 colon) was greater than 100 µM and the TGI (HCC-2998 colon) was greater than 100 µM. It also gave a TGI (NCI-H23 lung) greater than 100 µM, a TGI (NCI-H460 lung) greater than 100 µM and a TGI (OVCAR-3 ovarian) of 66.6 µM. The TGI (NCI-H226 lung) was greater than 100 µM, the TGI (SF-539 CNS) was greater than 100 µM and the TGI (UACC-257 melanoma) was greater than 100 µM. The TGI (UO-31 renal) was greater than 100 µM, the TGI (M14 melanoma) was greater than 100 µM and the TGI (SW-620 colon) was greater than 100 µM. For the same compound, the TGI (A498 renal) was greater than 100 µM, the TGI (SK-MEL-2 melanoma) was 61.1 µM and the TGI (LOX IMVI melanoma) was greater than 100 µM. For the same compound, the TGI (MCF7 breast) was greater than 100 µM, the TGI (IGROV1 ovarian) was greater than 100 µM and the TGI (CAKI-1 renal) was greater than 100 µM. It also gave a TGI (PC-3 prostate) greater than 100 µM.
